Source: patent US20180050035A1, “ANTIFUNGAL TREATMENT OF ROSACEA” (Gerbe Labs Inc., priority 2016, published 2018)
Converted amounts (≈) assume the structure as drawn. Values belong to the compound of their own block, whether it stands above or below them.

Experiments:
Format in all cases: cell-based
[1] = test system: Aspergillus fumigatus + Candida albicans co-culture (1:1); experiment: Broth microdilution MIC assay against co-culture of fungal spores; conditions: Table 4, repeated MIC study, agent alone, listed as Itraconazone
Protocol: Broth Microdilution Minimal Inhibitory Concentration (MIC) assays were performed to obtain the MIC values for Itraconazole and Ketoconazole with an antibiotic (Vancomycin or Tobramycin or Amikacin) against the two fungal strains.
The strains were maintained as a frozen glycerol stocks at −80° C. The fungal strains were prepared by thawing a glycerol stock, streaking and growing onto Sabouraud's Dextrose Agar (SDA) plates, overnight at 35±2° C. in aerobic conditions and used for the assay.
The completely synthetic medium RPMI-1640 (with glutamine, without bicarbonate, and with phenol red as a pH indicator) was buffered with 0.165 mol/L MOPS (3-[N-morpholino] propanesulfonic acid) buffer was used as the growth medium for the fungal strains. Overnight cultures of the fungal strains were grown on Difco™ Sabouraud's Dextrose Agar (SDA) plates at 35° C. To induce conidium and sporangiospore formation, the culture plates were transferred to incubator and grown for 5-7 days 30° C. or until good sporulation was obtained. Approximately, 10 mL of 0.85% saline containing 0.01% of Tween 80 was used to poured on to the agar plate containing conidia or sporangiospores and hyphal fragments. The suspension containing conidia or sporangiospores and hyphal fragments was aspirated and transferred to a sterile tube. This mixture was filtered to separate the spores from the vegetative cells of the fungi. […]

Candida albicans = experiment: Culture of Patient 7, sensitivity of isolate; conditions: Patient 7 culture
From the text: (§1) The patient underwent the standard workup for CRS, sleep disorder, and nasal obstruction, plus our diagnostic skin test and sinus CT scan.

gram negative bacteria = experiment: Culture of Patient 7, sensitivity of isolate; conditions: Patient 7 culture
From the text: as §1

MIC [1]: 1 µg/mL (≈ 1.42 µM)
Compound: CCC(C)n1ncn(-c2ccc(N3CCN(c4ccc(OCC5COC(Cn6cncn6)(c6ccc(Cl)cc6Cl)O5)cc4)CC3)cc2)c1=O (stereo not drawn) [Itraconazole]

Compound: CC(=O)N1CCN(c2ccc(OCC3COC(Cn4ccnc4)(c4ccc(Cl)cc4Cl)O3)cc2)CC1 (stereo not drawn) [Ketoconazole]
Sensitivity of cultured isolate (Candida albicans): sensitive

Compound: NC[C@H]1O[C@H](O[C@H]2[C@H](O)[C@@H](O[C@H]3O[C@H](CO)[C@@H](O)[C@H](N)[C@H]3O)[C@H](N)C[C@@H]2N)[C@H](N)C[C@@H]1O [tobramycin]
Sensitivity of cultured isolate (gram negative bacteria): sensitive
